The subject of the first assay is human platelet rich plasma (ADP-induced platelet aggregation). The assay can be described thus: Inhibition of human platelet aggregation, 96-well assay. Conditions: 20 min, aggregation induced by ADP, 96-well plates, AUC of absorbance over 20 minutes. In kind it is cell-based. Here is the method: Inhibition of Human Platelet Aggregation
Alternatively to a binding assay which measures a compound's ability to bind to the P2Y12 receptor, the effect on cellular function was also determined. This ability of the compound was evaluated in two platelet aggregation assays: in 96-well plates and with the “Born”-method using single cuvettes.
Whole blood was collected from healthy volunteers using 20 ml syringes containing 2 ml of ACD-A Aqua-Citrat-Dextrose-A, Fresenius). The anticoagulated whole blood was transferred into 15 ml polypropylene conical tubes (10 ml per tube). The tubes were centrifuged for 15 minutes at 150×g at RT without using the centrifuge brake. This procedure leads to a pellet of cellular components and a supernatant of platelet rich plasma (PRP). The PRP layer was collected from each tube and pooled for each donor. To avoid carry over of cellular components following centrifugation, approximately 5 ml of PRP was left in the tube. The platelet concentration was determined using a Coulter Counter.
The 15 ml tubes containing the pellet of cellular components were centrifuged again for 10 minutes at 1940×g. This pelleted out most particulate blood constituents remaining, leaving a layer of Platelet Poor Plasma (PPP). The PPP was collected for each donor. The PRP layer, previously set aside, was diluted with PPP to a final concentration of approximately 3×E8 platelets/ml with the PPP.
The human platelet aggregation assay is performed in 96-well plates using a microtiter plate reader (SpectraMax Plus 384 with SoftMax Pro software from Molecular Devices). In the plate 15 μl of test compound at 10× final concentration in NaCl is mixed with 120 μl fresh PRP and incubated for 5 minutes. Following that incubation period, 15 μl of 40 μM ADP is added to the reaction mix. This addition of ADP is sufficient to induce aggregation in the absence of an inhibitor. The plates are then transferred to the microplate reader and aggregation is measured over 20 minutes. The instrument settings include: Absorbance at 650 nm, run time 20 minutes with readings in 1-minute intervals and 50 seconds shaking between readings all performed at 37° C. Results of the assay are expressed as % inhibition, and are calculated using area under curve (AUC) of the absorbance over 20 minutes.
The IC50 data of the above described platelet aggregation 96-well assay using human platelet rich plasma for exemplary compounds of the present invention are shown in table 2.
On to `CCOC(=O)N1CCN(C(=O)[C@H](CCC(=O)O)NC(=O)c2cc(OCC(=O)NC3(C(=O)NC4CCC4)CCC3)n(-c3ccccc3)n2)CC1` [Example 167, 4-{(S)-4-Carboxy-2-[(5-{[1-(cyclobutyl-carbamoyl)-cyclobutylcarbamoyl]-methoxy}-1-phenyl-1H-pyrazole-3-carbonyl)-amino]-butyryl}-piperazine-1-carboxylic acid ethyl ester], for which the IC50 (as a rule, the point on the concentration scale where inhibition reaches its midpoint) was 2190 nM.

Turning to `CCOC(=O)N1CCN(C(=O)[C@H](CCC(=O)O)NC(=O)c2cc(OCC(=O)C3CC3)n(-c3ccccc3)n2)CC1` [Example 96, 4-((S)-4-Carboxy-2-{[5-(2-cyclopropyl-2-oxo-ethoxy)-1-phenyl-1H-pyrazole-3-carbonyl]-amino}-butyryl)-piperazine-1-carboxylic acid ethyl ester], inhibition was half-maximal at 2600 nM (IC50).

In the case of `CCOC(=O)N1CCN(C(=O)[C@H](CCC(=O)O)NC(=O)c2cc(OCC(=O)N[C@@H](C)C(=O)O)n(-c3ccccc3)n2)CC1` [Example 138, 4-[(S)-4-Carboxy-2-({5-[((S)-1-carboxy-ethylcarbamoyl)-methoxy]-1-phenyl-1H-pyrazole-3-carbonyl}-amino)-butyryl]-piperazine-1-carboxylic acid ethyl ester], 1480 nM corresponded to half-maximal inhibition (IC50).

`CCOC(=O)N1CCN(C(=O)[C@H](CCC(=O)O)NC(=O)c2cc(OCC(=O)N[C@H](C)C(=O)O)n(-c3ccccc3)n2)CC1` [Example 139, 4-[(S)-4-Carboxy-2-({5-[((R)-1-carboxy-ethylcarbamoyl)-methoxy]-1-phenyl-1H-pyrazole-3-carbonyl}-amino)-butyryl]-piperazine-1-carboxylic acid ethyl ester] displayed an IC50 of 1850 nM.

The target of the next assay is T1, human P2Y12 receptor (Homo sapiens, UniProt Q9H244).
T1 construct: expressed in transfected cells; host or cells: CHO cells (membrane preparation)
T1 sequence (Q9H244 whole entry): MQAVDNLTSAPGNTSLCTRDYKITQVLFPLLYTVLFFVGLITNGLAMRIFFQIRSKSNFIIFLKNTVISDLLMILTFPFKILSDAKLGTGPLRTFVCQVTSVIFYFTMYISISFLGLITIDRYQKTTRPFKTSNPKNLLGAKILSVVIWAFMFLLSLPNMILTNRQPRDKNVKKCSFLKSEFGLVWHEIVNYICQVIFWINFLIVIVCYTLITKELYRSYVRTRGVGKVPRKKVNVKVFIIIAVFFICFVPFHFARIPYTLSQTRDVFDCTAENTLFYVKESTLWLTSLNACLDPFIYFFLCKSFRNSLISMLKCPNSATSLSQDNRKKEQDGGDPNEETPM
The assay can be described thus: Human P2Y12 recombinant cell membrane binding assay. Conditions: competition against 33P 2MeS-ADP; CHO cell membranes with recombinant human P2Y12 receptor. As for the experimental part: The ability of the compounds of the formula I to inhibit the P2Y12 receptor can be assessed by determining the concentration of the compound of the formula I that binds to the human P2Y12 Recombinant Cell Membrane Binding Assay with 33P 2MeS-ADP.
Human P2Y12 Recombinant Cell Membrane Binding Assay
The ability of a test compound to bind to the P2Y12 receptor was evaluated in a recombinant cell membrane binding assay. In this competitive binding assay, the test compound competed against a radiolabeled agonist for binding to the P2Y12 receptor, expressed on the cell membrane. Inhibition of binding of the labeled material was measured and correlated to the amount and potency of the test compound. This binding assay is a modification of the procedure described by Takasaki, J. et. al, Mol. Pharmacol., 2001, Vol. 60, pg. 432.
As source of P2Y12, a membrane preparation was prepared from Chinese Hamster Ovary (CHO) cells with recombinant expression of the human P2Y12 receptor according to standard procedures.
To a 96-well microtiterplate the following were added: a) 24 μl of assay buffer (10 mM HEPES, 138 mM NaCl, […] KCl, 12 mM NaHCO3, 1 mM EDTA-Na, 0.1% BSA, pH 7.4) b) 1 μL compound in DMSO c) 50 μL P2Y12 CHO membrane (20 μg/ml) and after 15 min at RT d) 25 μL of 1.61 nM 33P 2MeS-ADP (Perkin Elmer NEN custom synthesis, specific activity ˜2100Ci/mmol) made in assay buffer.
After 20 min incubation at RT samples were transferred to 96-well microtiter filterplates (Millipore HTS GF/B), pre-wetted for 20 min with 300 μL of stop buffer (10 mM HEPES, 138 mM NaCl pH 7.4) and then filtered through completely with a Millipore plate vacuum. Next, wells were washed four times with 400 μl/well of stop buffer on a plate vacuum. The plate was disassembled and allowed to air dry overnight with the filter side up over night. The filter plates were snapped into adapter plates and 0.1 mL of Microscint 20 Scintillation Fluid (Perkin Elmer #6013621) was added to each well. The top of the filterplate was sealed with plastic plate covers. The sealed filterplate were incubated 2 hours at RT. A Microbeta Scintillation Counter was used to measure counts. The binding of compound is expressed as a % inhibition of specific binding, defined by subtraction of the background with 1 mM ADP.
Compounds were diluted as 10 mM DMSO stocks and tested in a four-point, five-fold dilution series run in triplicate beginning at 10 μM, final concentration. Data were analyzed using a four-parameter curve fit with a fixed minimum and maximum experimentally defined as the average positive and negative controls on each plate. The IC50 data of the above described human P2Y12 recombinant cell membrane binding assay for exemplary compounds of the present invention are shown in table 1.
Regarding `CC(C)(C)C(=O)COc1cc(C(=O)N[C@@H](CCC(=O)O)C(=O)N2CCC(C(=O)c3cccc(Cl)c3)CC2)nn1-c1ccccc1` [Example 127, (S)-5-[4-(3-Chloro-benzoyl)-piperidin-1-yl]-4-{[5-(3,3-dimethyl-2-oxo-butoxy)-1-phenyl-1H-pyrazole-3-carbonyl]-amino}-5-oxo-pentanoic acid], the half-maximal inhibitory concentration (IC50) turned out to be 2800 nM.

Turning to `CCOC(=O)N1CCN(C(=O)[C@H](CNc2c(O)c(=O)c2=O)NC(=O)c2cc(OCC(=O)C(C)(C)C)n(-c3ccccc3)n2)CC1` [Example 136, 4-[(S)-2-{[5-(3,3-Dimethyl-2-oxo-butoxy)-1-phenyl-1H-pyrazole-3-carbonyl]-amino}-3-(2-hydroxy-3,4-dioxo-cyclobut-1-enylamino)-propionyl]-piperazine-1-carboxylic acid ethyl ester], the half-maximal inhibitory concentration (IC50) was found to be 3500 nM.

For `CCCCOC(=O)N1CCN(C(=O)[C@H](CCC(=O)O)NC(=O)c2cc(OCC(=O)C(C)(C)C)n(-c3ccccc3)n2)CC1` [Example 147, 4-((S)-4-Carboxy-2-{[5-(3,3-dimethyl-2-oxo-butoxy)-1-phenyl-1H-pyrazole-3-carbonyl]-amino}-butyryl)-piperazine-1-carboxylic acid butyl ester], the IC50 stood at 95 nM.

Turning to `CCOC(=O)N1CCN(C(=O)[C@H](CNC(=O)C(=O)O)NC(=O)c2cc(OCC(=O)C(C)(C)C)n(-c3ccccc3)n2)CC1` [Example 134, 4-[(S)-2-{[5-(3,3-Dimethyl-2-oxo-butoxy)-1-phenyl-1H-pyrazole-3-carbonyl]-amino}-3-(oxalyl-amino)-propionyl]-piperazine-1-carboxylic acid ethyl ester], the IC50 is 501 nM.

Turning to `CCOC(=O)N1CCN(C(=O)[C@H](CC(=O)O)NC(=O)c2cc(OCC(=O)C(C)(C)C)n(-c3ccccc3)n2)CC1` [Example 163, 4-((S)-3-Carboxy-2-{[5-(3,3-dimethyl-2-oxo-butoxy)-1-phenyl-1H-pyrazole-3-carbonyl]-amino}-propionyl)-piperazine-1-carboxylic acid ethyl ester], the concentration for half-maximal inhibition (IC50) is 200 nM.

Take `CCOC(=O)N1CCN(C(=O)[C@H](CCC(=O)O)NC(=O)c2cc(OC3(C(=O)O)CCC3)n(-c3ccccc3)n2)CC1` [Example 7, 4-((S)-4-Carboxy-2-{[5-(1-carboxy-cyclobutoxy)-1-phenyl-1H-pyrazole-3-carbonyl]-amino}-butyryl)-piperazine-1-carboxylic acid ethyl ester]: the IC50 was determined as 601 nM.

With `CC(C)(C)C(=O)COc1cc(C(=O)N[C@@H](CCC(=O)O)C(=O)N2CCN(C(=O)OC3CCC3)CC2)nn1-c1ccccc1` [Example 158, 4-((S)-4-Carboxy-2-{[5-(3,3-dimethyl-2-oxo-butoxy)-1-phenyl-1H-pyrazole-3-carbonyl]-amino}-butyryl)-piperazine-1-carboxylic acid cyclobutyl ester], the concentration for half-maximal inhibition (IC50) turned out to be 266 nM.

As to `Cc1cc(COc2cc(C(=O)N[C@@H](CCC(=O)O)C(=O)N3CCN(c4cccc(C(F)(F)F)c4)CC3)nn2-c2ccccc2)no1` [Example 120, (S)-4-{[5-(5-Methyl-isoxazol-3-ylmethoxy)-1-phenyl-1H-pyrazole-3-carbonyl]-amino}-5-oxo-5-[4-(3-trifluoromethyl-phenyl)-piperazin-1-yl]-pentanoic acid], the IC50 turned out to be 3500 nM.

For the compound `CCOC(=O)N1CCN(C(=O)[C@H](CC(C(=O)O)C(=O)O)NC(=O)c2cc(OC3(C(=O)OCC)CCC3)n(-c3ccccc3)n2)CC1` [Example 61, 2-[(S)-2-{[5-(1-Ethoxycarbonyl-cyclobutoxy)-1-phenyl-1H-pyrazole-3-carbonyl]-amino}-3-(4-ethoxycarbonyl-piperazin-1-yl)-3-oxo-propyl]-malonic acid], the half-maximal inhibitory concentration (IC50) stood at 379 nM.

In the case of `CCOC(=O)N1CCN(C(=O)[C@H](CC(=O)NS(C)(=O)=O)NC(=O)c2cc(OCC(=O)C(C)(C)C)n(-c3ccccc3)n2)CC1` [Example 164, 4-((S)-2-{[5-(3,3-Dimethyl-2-oxo-butoxy)-1-phenyl-1H-pyrazole-3-carbonyl]-amino}-4-methanesulfonylamino-4-oxo-butyryl)-piperazine-1-carboxylic acid ethyl ester], the IC50 came to 1600 nM.

As to `COc1cc(OC)cc(N2CCN(C(=O)[C@H](CCC(=O)O)NC(=O)c3cc(OCC(=O)C(C)(C)C)n(-c4ccccc4)n3)CC2)c1` [Example 105, (S)-5-[4-(3,5-Dimethoxy-phenyl)-piperazin-1-yl]-4-{[5-(3,3-dimethyl-2-oxo-butoxy)-1-phenyl-1H-pyrazole-3-carbonyl]-amino}-5-oxo-pentanoic acid], the IC50 was determined as 1400 nM.

For the origin of these results see patent US8598179B2, “Pyrazole-carboxamide derivatives as P2Y12 antagonists” (Sanofi, priority 2007, dated 2013).
